Measured values from patent publication US11559579B2 (HealthPartners Research & Education, priority 2014, dated 2023).

Columns and labels:
[1] = test system: neurons in the hippocampus; experiment: NeuN immunohistochemistry of hippocampus post-injury; assay type: in vivo, Sprague Dawley rats; conditions: after sacrifice on day 8 post-injury; vs saline rats; FIG. 8a/8b
Text: (§1) 2007 Mar. 15; 160(2):187-96. Onyszchuk, G., et al., J. Neurosci. Methods, 2007, 160(2): p.
FIG. 8a illustrates neuronal viability in the saline rat hippocampus.

M2 microglia (CD206) = experiment: M2 microglia marker CD206 expression post-injury; assay type: in vivo, Sprague Dawley rats; conditions: sacrifice on day 8 post-injury; vs intranasal saline rats; FIG. 3
Text: as §1
(§2) Microglia are the macrophages of the brain, with two dominant phenotypes: M1 and M2.
(§3) M1 microglia are classically activated pro-inflammatory cells. M1 microglia are useful in the initial healing process, but persistent activation results in neuronal cell death due to production of reactive oxygen species. M2 microglia are anti-inflammatory, pro-healing macrophages.

[2] = test system: Moderate Controlled Cortical Impact Injury Model (TBI); experiment: Morris water maze probe trial after controlled cortical impact; assay type: in vivo, Sprague Dawley rats; conditions: days 11-14 post-injury
Text: as §1

[3] = test system: Moderate Controlled Cortical Impact Injury Model (TBI); experiment: Beam walk motor function test after controlled cortical impact; assay type: in vivo, Sprague Dawley rats; conditions: day 7 post-injury vs day 1 baseline and vs saline (vehicle) rats on day 7; intranasal, first dose 4 hours post-injury, then once a day; FIG. 1
Text: as §1

M1 microglia (CD86) = experiment: M1 microglia marker CD86 expression post-injury; assay type: in vivo, Sprague Dawley rats; conditions: sacrifice on day 8 post-injury; vs saline rats; FIG. 4
Text: as §1, §2, §3

[4] = test system: Moderate Controlled Cortical Impact Injury Model (TBI); experiment: Peg walk motor function test after controlled cortical impact; assay type: in vivo, Sprague Dawley rats; conditions: day 7 vs day 1 baseline and vs saline (vehicle) rats on day 7; intranasal, once a day; FIG. 2
Text: as §1

[5] = intranasal insulin; normal adults and patients with Alzheimer's disease; cited from earlier work

Substance: insulin
- neuronal viability in the hippocampus (NeuN) [1]: improved neuronal viability in the hippocampus
- M2 microglia, expression of CD206 (M2 microglia (CD206)): significant increase in M2 microglia
- search strategy (Morris water maze probe trial) ([2]; insulin vs saline (vehicle) treated rats, FIG. 7): saline (vehicle) treated rats utilized significantly less targeted search methods (looping) than insulin rats
- number of crosses of the target island region (Morris water maze probe trial) ([2]; vs saline (vehicle) treated rats, FIG. 6): significant increase in the number of crosses of the target island region
- time to cross the beam (beam walk) [3]: significant decrease in time
- M1 microglia markers, expression of CD86 (M1 microglia (CD86)): no significant increase in expression of M1 microglia markers
- peg walk motor function [4]: positive trend towards improved motor function
- memory [5]: improve memory
